Ends that are not written are not given here.

Data on eight compounds can be found in article PMC5774622 (Biochimie, 2017).

For assay [1], the system named is TFEB nuclear translocation. To be noted: cited from earlier work.
Assay [2] deals with CN. As to conditions: kinetics comparable to intact RII; cited from earlier work.
For assay [3], the system named is CNA in mouse brain lysates. The assay can be described thus: GST pull-down of CNA from mouse brain lysates. To be noted: addition of synthetic peptide to pull-down. It is filed as binding.
The target of assay [4] is CN (Rattus norvegicus, UniProt P63100+P63329). Nature of the assay: CN phosphatase colorimetric assay with RII phosphopeptide as substrate. Type of assay: biochemical.
For assay [5], the system named is interaction between GST-CNA and GFP-TFEB. The assay can be described thus: GST pull-down of GFP-TFEB by GST-CNA. As to conditions: quercetin 50 μM and 100 μM; GFP-TFEB transfected in HeLa cells. It is filed as binding.
The target in assay [6] is PVIVIT peptide. To be noted: cited from earlier work.
Assay [7] addresses NFAT PRIEIT peptide (Homo sapiens). As to conditions: cited from earlier work.
Assay [8] has as its target purified recombinant CN (Rattus norvegicus, UniProt P63100+P63329). The assay can be described thus: Fluorescence polarization.

purified recombinant CN, sequence (P63100 whole entry, other chains not shown): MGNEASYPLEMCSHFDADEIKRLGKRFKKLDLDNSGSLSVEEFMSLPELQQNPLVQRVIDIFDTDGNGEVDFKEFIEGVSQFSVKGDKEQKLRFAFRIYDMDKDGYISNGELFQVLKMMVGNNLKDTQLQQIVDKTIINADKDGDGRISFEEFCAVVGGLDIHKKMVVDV

As to `C=CC[C@@H]1/C=C(\C)C[C@H](C)C[C@H](OC)[C@H]2O[C@@](O)(C(=O)C(=O)N3CCCC[C@H]3C(=O)O[C@H](/C(C)=C/[C@@H]3CC[C@@H](O)[C@H](OC)C3)[C@H](C)[C@@H](O)CC1=O)[C@H](C)C[C@@H]2OC` [FK506], in assay [1], the “TFEB nuclear translocation during starvation” value was “reduce TFEB nuclear translocation”.

On to “DLDVPIPGRFDRRVpSVAAE [RII phosphopeptide]”, for which, in assay [2], the “Vmax of dephosphorylation by CN” value was 1.7 µmol/min/mg.

QSYLENPTSYHLQQS [TFEB-YLENP]: the “effect on interaction between GST-TFEB-YLENP and CNA” value in assay [3] is reported as “greatly inhibited”.

Consider GSSHLAPPNPDKQFL [RCAN1-HLAPP], for which, in assay [4], the IC50 worked out at 131 µM.

In the case of `O=c1c(O)c(-c2ccc(O)c(O)c2)oc2cc(O)cc(O)c12` [quercetin], the “effect on interaction between GST-CNA and GFP-TFEB” value in assay [5] is reported as “blocks the interaction”.

In the case of Calcineurin (from UniProt Q08209), the dissociation constant (Kd) in assay [6] was 0.5 µM; in assay [7] it was 25 µM.

With `CC(C)C[C@H](NC(=O)[C@H](Cc1ccc(O)cc1)NC(=O)[C@H](CCC(N)=O)NC(=O)[C@@H](N)CC(=O)O)C(=O)N[C@@H](C)C(=O)N[C@H](C(=O)N1CCC[C@H]1C(=O)N[C@@H](CCC(N)=O)C(=O)N[C@@H](Cc1c[nH]cn1)C(=O)N1CCC[C@H]1C(=O)N[C@@H](Cc1ccc(O)cc1)C(=O)N[C@@H](CCC(N)=O)C(=O)N[C@@H](Cc1c[nH]c2ccccc12)C(=O)N[C@@H](C)C(=O)N[C@@H](CCCCN)C(=O)O)C(C)C` [NFATc1-YLAVP], the IC50 in assay [8] is roughly 5 µM.

With ESILLVPPTWPKPLV [NFATc2-ILLVP], in assay [4], half-maximal inhibition (IC50) required 130 µM.
